Reference: ChEMBL document CHEMBL1201862, “PubChem BioAssay data set” (2004)
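Method: 48-hour compound exposure of cells in 96-well plates, five concentrations, linear interpolation of endpoints. GI50 marks 50% less growth.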 The source made the active and inactive calls. Cut-off read from the data, not from the text of the source: active = GI50 up to about 1.1 µM and inactive = higher.

What was measured:
Assay in all cases: DTP human tumour cell line panel, 48 h
[1] = test system: RPMI-8226
[2] = test system: DU-145
[3] = test system: KM12
[4] = test system: 786-0
[5] = test system: SR
[6] = test system: M14
[7] = test system: NCI-H226
[8] = test system: SF-295
[9] = test system: PC-3
[10] = test system: NCI-H23
[11] = test system: SK-MEL-28
[12] = test system: HL-60
[13] = test system: OVCAR-4
[14] = test system: HCC 2998
[15] = test system: SW-620
[16] = test system: HOP-92
[17] = test system: NCI-H522
[18] = test system: T47D
[19] = test system: COLO 205
[20] = test system: MDA-MB-231

| Compound | GI50 [1] | GI50 [2] | GI50 [3] | GI50 [4] | GI50 [5] | GI50 [6] | GI50 [7] | GI50 [8] | GI50 [9] | GI50 [10] | GI50 [11] | GI50 [12] | GI50 [13] | GI50 [14] | GI50 [15] | GI50 [16] | GI50 [17] | GI50 [18] | GI50 [19] | GI50 [20] |
| --- | --- | --- | --- | --- | --- | --- | --- | --- | --- | --- | --- | --- | --- | --- | --- | --- | --- | --- | --- | --- |
| NC(=O)c1cccc(/N=c2\oc3ccc(Br)cc3cc2-c2nc3ccccc3[nH]2)c1 | 5.87 µM (inactive) | 15.5 µM (inactive) | 18.5 µM (inactive) | 14.5 µM (inactive) | 5.73 µM (inactive) | 15.7 µM (inactive) | 0.075 µM (active) | 15.8 µM (inactive) | 14.3 µM (inactive) | 16 µM (inactive) | > 100 µM (inactive) | 18.1 µM (inactive) | 18.8 µM (inactive) | 15.3 µM (inactive) | 15.3 µM (inactive) | 19 µM (inactive) | 22.1 µM (inactive) | 10 µM (inactive) | 14.6 µM (inactive) | 7.55 µM (inactive) |
| Cc1nc(O)nc2nc3ccc(Cl)cc3c(N(CCO)CCO)c12 | 52.6 µM (inactive) | > 100 µM (inactive) | 40 µM (inactive) | > 100 µM (inactive) | > 100 µM (inactive) | > 100 µM (inactive) | 26.8 µM (inactive) | > 100 µM (inactive) | > 100 µM (inactive) | > 100 µM (inactive) | > 100 µM (inactive) | > 100 µM (inactive) | 18.4 µM (inactive) | > 100 µM (inactive) | > 100 µM (inactive) | > 100 µM (inactive) | 24 µM (inactive) | > 100 µM (inactive) | > 100 µM (inactive) | 39 µM (inactive) |
| CN(C)CCNc1ccc2c(=O)n(CCN(C)C)c(=O)n3c4ccc([N+](=O)[O-])cc4c(=O)c1c23 | 0.163 µM (active) | 0.267 µM (active) | 0.518 µM (active) | 0.294 µM (active) | 0.0815 µM (active) | 1 µM (active) | 0.312 µM (active) | 0.359 µM (active) | 0.482 µM (active) | 0.177 µM (active) | 1.04 µM (active) | 0.157 µM (active) | 0.301 µM (active) | 0.387 µM (active) | 0.0524 µM (active) | 0.201 µM (active) | 0.08 µM (active) | 0.653 µM (active) | 0.179 µM (active) | 0.429 µM (active) |
| O=S1(=O)CCC2=CC(C(F)(F)F)=CC(C(F)(F)F)=CN21 | 0.535 µM (active) | 0.542 µM (active) | 1.71 µM (inactive) | 0.415 µM (active) | 0.216 µM (active) | 0.693 µM (active) | 2.08 µM (inactive) | 2.12 µM (inactive) | 2.01 µM (inactive) | 1.19 µM (inactive) | 1.78 µM (inactive) | 0.168 µM (active) | 1.71 µM (inactive) | 2.07 µM (inactive) | 0.302 µM (active) | 1.15 µM (inactive) | 0.236 µM (active) | 0.167 µM (active) | 0.454 µM (active) | 2.78 µM (inactive) |
| O=C(O)c1cnccc1-c1cc(=O)[nH]n1-c1ccccc1 | 48 µM (inactive) | > 53.1 µM (inactive) | 9.75 µM (inactive) | > 79.6 µM (inactive) | 11.3 µM (inactive) | 10.8 µM (inactive) | > 100 µM (inactive) | 21.6 µM (inactive) | 16.3 µM (inactive) | 97.7 µM (inactive) | > 43.4 µM (inactive) | 20.9 µM (inactive) | > 51.9 µM (inactive) | 25 µM (inactive) | > 23.2 µM (inactive) | > 53.2 µM (inactive) | > 63.4 µM (inactive) | 23.5 µM (inactive) | 16 µM (inactive) | > 100 µM (inactive) |
